What follows are compounds tested on HCV NS5A protein in 9-13 replicon cells (assay: Quantitative Western blot replicon assay (HEPC_REPLICON-ICWESTERN)). Settings: Hepatitis C virus; 9-13 replicon cells, 50% reduction in NS5A protein; read-out: HEPC_REPLICON-ICWESTERN Result Value (IC50).
Format: cell-based, Hepatitis C virus (HCV)
Method: Alternatively, the inhibitory activity of the metabolically active agents of the prodrugs can be confirmed using a quantitative Western immunoblot assay utilizing antibodies specific for HCV non-structural proteins, such as NS3, NS4A NS5A and NS5B. In one embodiment of this assay, replicon cells are treated with varying concentrations of test prodrug to determine the concentration of the metabolically active agent of the test prodrug that yields a 50% reduction in the amount of a non-structural protein produced as compared to a control sample (IC50). A single non-structural protein may be quantified or multiple non-structural proteins may be quantified. Antibodies suitable for carrying out such immunoblot assays are available commercially (e.g., from BIODESIGN International, Saco, Me.).
Certain prodrugs of the invention, which may inhibit HCV translation or replication prior to metablism and/or are metabolized into active agents, were also tested for their ability to inhibit HCV replication using a quantitative Western blot analysis with antibodies specific for the HCV NS5A or other non-structural proteins. Actively dividing 9-13 replicon cells were seeded into 6-well plates at a density of 1×10^5 cells/well in a volume of 2 ml/well and incubated at 37° C. and 5% CO2 for 24 hours. Various concentrations of test prodrugs (in a volume of 10 ul) were added to the wells and the cells incubated for another 48 hours. Protein samples were prepared from the cultured cells, resolved on a SDS-PAGE gel and transferred to a nitrocellulose membrane. The membrane was blocked with 5% non-fat milk in PBS for 1 hour at room temperature. Primary antibody (anti NS5A antibody; BIODESIGN International, Saco, Me.) incubation was performed for 1 hour at room temperature, after which the membrane was washed 3 times (for 15 min per time) with PBST (PBS plus 0.1% Tween 20). Horseradish peroxidase conjugated secondary antibody incubation was performed for 1 hour at room temperature and the membrane was washed 3 times (for 15 min per time) with PBST. The membrane was then soaked in substrate solution (Pierce) and exposed to a film or quantified using an imager. In this assay, the amount of test prodrug that is believed to be transformed into an active agent under the given conditions that yielded a 50% reduction in the amount of NS5A protein translated as compared to a control sample (IC50) was determined.
`CC(C)[C@@H](CN(C(=O)C(Cl)Cl)c1cccc(-c2cc(-c3c(Cl)cccc3Cl)no2)c1)NC(=O)[C@@H](NC(=O)OC(C)(C)C)c1ccccc1` [Cpd. No. 22, tert-Butyl (S)-2-((S)-1-(2,2-Dichloro-N-(3-(3-(2,6-dichlorophenyl)isoxazol-5-yl)phenyl)acetamido)-3-methylbutan-2-ylamino)-2-oxo-1-phenylethylcarbamate] showed an IC50 of 1 to 20 µM. Work on `CC(C)(C)OC(=O)CC[C@H](NC(=O)OC(C)(C)C)C(=O)NCCN(C(=O)C(Cl)Cl)c1cccc(-c2cc(-c3c(Cl)cccc3Cl)no2)c1` [Cpd. No. 32, (S)-tert-Butyl 4-(tert-Butoxycarbonylamino)-5-(2-(2,2-dichloro-N-(3-(3-(2,6-dichlorophenyl)isoxazol-5-yl)phenyl)acetamido)ethylamino)-5-oxopentanoate] yielded an IC50 greater than 20 µM. In the case of `CC(C)[C@@H](CN(C(=O)C(Cl)Cl)c1cccc(-c2cc(-c3c(Cl)cccc3Cl)no2)c1)NC(=O)[C@H](N)c1ccccc1` [Cpd. No. 41, N-((S)-2-((R)-2-Amino-2-phenylacetamido)-3-methylbutyl)-2,2-dichloro-N-(3-(3-(2,6-dichlorophenyl)isoxazol-5-yl)phenyl)acetamide], the IC50 is reported as greater than 20 µM. `O=C(NCCN(C(=O)C(Cl)Cl)c1cccc(-c2cc(-c3c(Cl)cccc3Cl)no2)c1)[C@@H]1CC(O)CN1` (stereo partly drawn) [Cpd. No. 34, (2S)-N-(2-(2,2-Dichloro-N-(3-(3-(2,6-dichlorophenyl)isoxazol-5-yl)phenyl)acetamido)ethyl)-4-hydroxypyrrolidine-2-carboxamide] showed an IC50 greater than 20 µM. `CC[C@H](C)[C@H](N)C(=O)NCCN(C(=O)C(Cl)Cl)c1cccc(-c2cc(-c3c(Cl)cccc3Cl)no2)c1` [Cpd. No. 38, (2S,3S)-2-Amino-N-(2-(2,2-dichloro-N-(3-(3-(2,6-dichlorophenyl)isoxazol-5-yl)phenyl)acetamido)ethyl)-3-methylpentanamide] gave an IC50 of 1 to 20 µM. Compound `CC(C)(C)OC(=O)N1CC(O)C[C@H]1C(=O)NCCN(C(=O)C(Cl)Cl)c1cccc(-c2cc(-c3c(Cl)cccc3Cl)no2)c1` (stereo partly drawn) [Cpd. No. 33, (2S)-tert-Butyl 2-(2-(2,2-Dichloro-N-(3-(3-(2,6-dichlorophenyl)isoxazol-5-yl)phenyl)acetamido)ethylcarbamoyl)-4-hydroxypyrrolidine-1-carboxylate] has an IC50 greater than 20 µM. Work on `CCOC(=O)CN(C(=O)C(Cl)Cl)c1ccnc(-c2cc(-c3c(Cl)cccc3Cl)no2)c1` [Cpd. No. 8, Ethyl 2-(2,2-Dichloro-N-(2-(3-(2,6-dichlorophenyl)isoxazol-5-yl)pyridin-4-yl)acetamido)acetate] yielded an IC50 of 1 to 20 µM. With `CC(C)[C@@H](CN(C(=O)C(Cl)Cl)c1cccc(-c2cc(-c3c(Cl)cccc3Cl)no2)c1)NC(=O)C1CC(O)CN1` (stereo partly drawn) [Cpd. No. 42, N-((S)-1-(2,2-Dichloro-N-(3-(3-(2,6-dichlorophenyl)isoxazol-5-yl)phenyl)acetamido)-3-methylbutan-2-yl)-4-hydroxypyrrolidine-2-carboxamide] the IC50 was greater than 20 µM. Work on `CC(C)(C)OC(=O)N[C@H](C(=O)NCCN(C(=O)C(Cl)Cl)c1cccc(-c2cc(-c3c(Cl)cccc3Cl)no2)c1)c1ccccc1` [Cpd. No. 17, (S)-tert-Butyl 2-(2-(2,2-Dichloro-N-(3-(3-(2,6-dichlorophenyl)isoxazol-5-yl)phenyl)acetamido)ethylamino)-2-oxo-1-phenylethylcarbamate] yielded an IC50 greater than 20 µM. `CCC(C)OCN(C(=O)C(Cl)Cl)c1ccnc(-c2cc(-c3c(Cl)cccc3Cl)no2)c1` (centres unmarked) [Cpd. No. 10, N-(sec-Butoxymethyl)-2,2-dichloro-N-(2-(3-(2,6-dichlorophenyl)isoxazol-5-yl)pyridin-4-yl)acetamide] showed an IC50 of 1 to 20 µM. Work on `COC(=O)CCN(C(=O)C(Cl)Cl)c1cccc(-c2cc(-c3c(Cl)cccc3Cl)no2)c1` [Cpd. No. 12, Methyl 3-(2,2-Dichloro-N-(3-(3-(2,6-dichlorophenyl)isoxazol-5-yl)phenyl)acetamido)propanoate] yielded an IC50 greater than 20 µM.
